Results on twelve molecules are retold here after US12486290B2, “Isoindolinone and indazole compounds for the degradation of EGFR” (C4 THERAPEUTICS, INC., priority 2019, dated 2025).

The structures appear in SMILES notation.

Common to all, as to type: cell-based
Experiment [1] concerns the target T1, EGFR T790M/L858R (NCI-H1975 cells) (Homo sapiens, UniProt P00533, L858R/T790M).
T1 construct: NCI-H1975 (harboring EGFR heterozygous T790M/L858R mutations); host or cells: NCI-H1975
In words: EGFR (L858R) degradation analysis, Total EGFR (L858R) HTRF, NCI-H1975 cells. The settings on record: 6 hours. Put shortly: (§1)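 Cells (10000/well NCI-H1975 and NCI-H1975+CS, 1000/well NCI-H3255) treated with 11-point half-log titrations from 10 μM top, in duplicate, for 6 hours at 37° C., 5% CO2. Total EGFR (L858R) quantified by HTRF FRET; untreated cells as negative and cell-free wells as positive control.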

For experiment [2], the target named is T2, EGFR T790M/L858R/C797S (NCI-H1975+CS cells) (Homo sapiens, UniProt P00533, C797S/L858R/T790M).
T2 construct: NCI-H1975+CS (harboring EGFR heterozygous T/790M/L858R/C797S mutations) was generated using CRISPR technology; host or cells: NCI-H1975+CS (CRISPR-edited NCI-H1975)
Put plainly: EGFR (L858R) degradation analysis, Total EGFR (L858R) HTRF, NCI-H1975+CS cells. The following applies: 6 hours, read-out: H1975 C797S clone EGFR DC50. The source says: NCI-H1975 (harboring EGFR heterozygous T790M/L858R mutations) and NCI-H3255 (harboring EGFR heterozygous L858R mutation) were purchased from ATCC and NCI, respectively. NCI-H1975+CS (harboring EGFR heterozygous T/790M/L858R/C797S mutations) was generated using CRISPR technology to introduce the additional C797S mutation by Horizon Discovery. RPMI 1640 no-phenol red medium and fetal bovine serum (FBS) were purchased from Gibco (Grand Island, NY, USA). Cell culture flasks and 384-well microplates were acquired from VWR (Radnor, PA, USA). Total EGFR (L858R) HTRF assay kits were purchased from Cisbio (Bedford, MA, USA).
Degradation of EGFR protein containing L858R mutation was determined based on quantification of FRET signal using Total EGFR (L858R) HTRF assay kit. Test compounds were added to the 384-well plate from a top concentration of 10 μM with 11 points, half log titration in duplicates. NCI-H1975, NCI-H1975+CS or NCI-H3255 cells were added into 384-well plates at a cell density of 10000, 10000 or 1000 cells per well, respectively. The plates were kept at 37° C. with 5% CO2 for 6 hours. Cells treated in the absence of the test compound were the negative control. Positive control was set by wells containing all reagents but no cells. FRET signal was acquired on EnVision™ Multilabel Reader (PerkinElmer, Santa Clara, CA, USA).
In general terms: Time-resolved FRET reads energy transfer from a long-lived donor to a nearby acceptor.

Experiment [3] has as its target T3, EGFR L858R (NCI-H3255 cells) (Homo sapiens, UniProt P00533, L858R).
T3 construct: NCI-H3255 (harboring EGFR heterozygous L858R mutation); host or cells: NCI-H3255
In words: EGFR (L858R) degradation analysis, Total EGFR (L858R) HTRF, NCI-H3255 cells. The settings on record: 6 hours. An outline of the steps:
as §1

T1 sequence (P00533 25-1210 T790M/L858R): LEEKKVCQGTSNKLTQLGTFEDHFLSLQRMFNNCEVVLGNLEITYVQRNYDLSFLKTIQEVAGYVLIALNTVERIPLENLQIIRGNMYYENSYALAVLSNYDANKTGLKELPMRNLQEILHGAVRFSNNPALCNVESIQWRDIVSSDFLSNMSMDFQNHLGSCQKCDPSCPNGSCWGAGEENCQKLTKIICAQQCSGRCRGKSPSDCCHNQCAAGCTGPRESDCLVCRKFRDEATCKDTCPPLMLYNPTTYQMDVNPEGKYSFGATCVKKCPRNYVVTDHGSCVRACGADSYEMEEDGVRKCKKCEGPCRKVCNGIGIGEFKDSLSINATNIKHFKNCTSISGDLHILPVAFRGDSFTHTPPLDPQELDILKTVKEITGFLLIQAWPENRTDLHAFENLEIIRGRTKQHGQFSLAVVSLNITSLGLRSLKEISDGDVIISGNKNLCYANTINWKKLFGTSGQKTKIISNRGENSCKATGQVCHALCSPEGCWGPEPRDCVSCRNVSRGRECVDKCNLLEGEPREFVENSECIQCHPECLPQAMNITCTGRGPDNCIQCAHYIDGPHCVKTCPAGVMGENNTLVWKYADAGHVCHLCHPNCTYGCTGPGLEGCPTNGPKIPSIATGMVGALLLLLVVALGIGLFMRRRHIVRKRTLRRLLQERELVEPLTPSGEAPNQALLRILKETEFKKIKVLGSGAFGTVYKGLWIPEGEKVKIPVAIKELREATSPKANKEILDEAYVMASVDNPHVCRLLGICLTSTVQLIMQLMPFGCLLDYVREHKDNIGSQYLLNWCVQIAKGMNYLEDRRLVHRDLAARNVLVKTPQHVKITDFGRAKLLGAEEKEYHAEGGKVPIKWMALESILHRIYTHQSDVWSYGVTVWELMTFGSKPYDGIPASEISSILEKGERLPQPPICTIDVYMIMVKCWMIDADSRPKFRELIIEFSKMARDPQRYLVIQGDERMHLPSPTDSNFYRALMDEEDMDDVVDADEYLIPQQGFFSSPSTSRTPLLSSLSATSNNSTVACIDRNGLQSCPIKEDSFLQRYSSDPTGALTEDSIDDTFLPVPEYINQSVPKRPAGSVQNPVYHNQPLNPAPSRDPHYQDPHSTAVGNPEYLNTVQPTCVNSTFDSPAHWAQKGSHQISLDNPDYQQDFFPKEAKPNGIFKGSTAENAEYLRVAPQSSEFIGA
T2 sequence (P00533 25-1210 T790M/C797S/L858R): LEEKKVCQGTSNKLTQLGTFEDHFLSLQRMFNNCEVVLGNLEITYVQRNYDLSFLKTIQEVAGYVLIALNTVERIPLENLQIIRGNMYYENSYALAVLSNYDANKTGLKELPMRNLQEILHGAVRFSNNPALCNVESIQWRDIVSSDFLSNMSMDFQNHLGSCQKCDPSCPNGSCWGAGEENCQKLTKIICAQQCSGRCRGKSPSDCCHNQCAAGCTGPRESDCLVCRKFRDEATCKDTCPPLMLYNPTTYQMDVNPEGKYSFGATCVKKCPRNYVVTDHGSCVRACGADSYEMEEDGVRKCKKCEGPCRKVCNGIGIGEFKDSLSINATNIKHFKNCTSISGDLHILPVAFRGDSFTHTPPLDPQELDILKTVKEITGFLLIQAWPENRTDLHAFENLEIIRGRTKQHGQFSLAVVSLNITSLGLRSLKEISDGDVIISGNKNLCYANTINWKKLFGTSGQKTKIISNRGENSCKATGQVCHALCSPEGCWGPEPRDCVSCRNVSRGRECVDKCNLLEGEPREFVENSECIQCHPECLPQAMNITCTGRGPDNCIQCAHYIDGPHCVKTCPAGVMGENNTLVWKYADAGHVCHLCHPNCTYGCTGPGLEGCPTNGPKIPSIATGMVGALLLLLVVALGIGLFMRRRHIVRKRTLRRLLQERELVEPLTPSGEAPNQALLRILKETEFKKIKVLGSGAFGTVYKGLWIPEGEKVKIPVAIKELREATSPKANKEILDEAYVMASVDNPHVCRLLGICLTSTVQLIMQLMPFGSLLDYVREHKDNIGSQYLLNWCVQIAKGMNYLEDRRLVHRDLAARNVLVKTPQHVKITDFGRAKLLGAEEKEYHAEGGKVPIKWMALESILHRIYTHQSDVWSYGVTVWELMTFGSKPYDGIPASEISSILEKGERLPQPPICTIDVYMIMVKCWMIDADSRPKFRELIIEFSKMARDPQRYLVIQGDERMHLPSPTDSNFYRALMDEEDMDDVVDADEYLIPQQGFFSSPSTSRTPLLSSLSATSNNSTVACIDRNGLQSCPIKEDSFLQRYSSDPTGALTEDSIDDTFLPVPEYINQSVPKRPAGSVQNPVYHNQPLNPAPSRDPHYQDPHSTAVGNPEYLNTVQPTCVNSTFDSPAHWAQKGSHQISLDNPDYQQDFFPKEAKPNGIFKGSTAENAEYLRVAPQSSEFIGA
T3 sequence (P00533 25-1210 L858R): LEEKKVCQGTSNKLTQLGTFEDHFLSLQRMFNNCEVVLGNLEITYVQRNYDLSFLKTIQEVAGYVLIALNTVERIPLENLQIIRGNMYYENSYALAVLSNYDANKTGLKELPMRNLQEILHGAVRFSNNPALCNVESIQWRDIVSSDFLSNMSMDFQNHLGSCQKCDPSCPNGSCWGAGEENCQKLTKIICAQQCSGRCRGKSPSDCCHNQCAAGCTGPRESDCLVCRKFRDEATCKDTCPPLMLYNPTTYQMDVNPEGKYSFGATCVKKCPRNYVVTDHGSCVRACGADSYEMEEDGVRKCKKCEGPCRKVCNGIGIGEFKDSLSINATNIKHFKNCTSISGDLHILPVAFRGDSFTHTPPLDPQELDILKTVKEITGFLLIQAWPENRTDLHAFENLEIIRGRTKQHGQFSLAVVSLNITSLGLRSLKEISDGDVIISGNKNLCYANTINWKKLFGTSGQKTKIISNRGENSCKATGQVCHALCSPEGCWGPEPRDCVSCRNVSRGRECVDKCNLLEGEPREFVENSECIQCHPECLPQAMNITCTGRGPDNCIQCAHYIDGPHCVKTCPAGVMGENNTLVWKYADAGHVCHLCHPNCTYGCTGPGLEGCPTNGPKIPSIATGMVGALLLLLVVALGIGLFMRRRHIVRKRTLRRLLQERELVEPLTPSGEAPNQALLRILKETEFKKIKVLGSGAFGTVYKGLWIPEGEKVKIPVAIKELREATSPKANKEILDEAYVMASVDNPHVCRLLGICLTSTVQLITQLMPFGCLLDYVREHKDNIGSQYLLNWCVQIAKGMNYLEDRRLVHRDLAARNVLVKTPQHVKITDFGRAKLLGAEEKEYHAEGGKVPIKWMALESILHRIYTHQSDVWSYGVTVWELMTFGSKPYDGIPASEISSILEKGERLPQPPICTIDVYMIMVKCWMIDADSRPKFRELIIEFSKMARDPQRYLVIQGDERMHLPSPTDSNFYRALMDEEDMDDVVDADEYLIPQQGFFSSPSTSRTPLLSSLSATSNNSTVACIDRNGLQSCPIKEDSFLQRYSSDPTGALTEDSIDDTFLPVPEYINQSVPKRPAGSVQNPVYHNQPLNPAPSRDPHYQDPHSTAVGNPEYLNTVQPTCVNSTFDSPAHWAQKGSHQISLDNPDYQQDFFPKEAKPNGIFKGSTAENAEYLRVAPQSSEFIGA

As for `O=C1CC[C@H](Nc2ccc(C3CCN(C(=O)CN4CCN(Cc5ccc(-c6cc(F)c7c(c6)C(=O)N(C(C(=O)Nc6nccs6)c6ncn8c6CCC8)C7)cc5)CC4)CC3)c(F)c2)C(=O)N1` (stereo partly drawn) [Compound 59, 2-(6,7-dihydro-5H-pyrrolo[1,2-c]imidazol-1-yl)-2-[6-[4-[[4-[2-[4-[4-[[(3S)-2,6-dioxo-3-piperidyl]amino]-2-fluoro-phenyl]-1-piperidyl]-2-oxo-ethyl]piperazin-1-yl]methyl]phenyl]-4-fluoro-1-oxo-isoindolin-2-yl]-N-thiazol-2-yl-acetamide], the DC50 in experiment [1] is 19 nM; in experiment [2], 8 nM; in experiment [3] it was 12 nM.
Consider `O=C1CC[C@H](Nc2ccc(C3CCN(CC(=O)N4CCN(c5ccc(-c6cc(F)c7c(c6)C(=O)N(C(C(=O)Nc6nccs6)c6ncn8c6CCC8)C7)cc5)CC4)CC3)cc2)C(=O)N1` (stereo partly drawn) [Compound 6, 2-(6,7-dihydro-5H-pyrrolo[1,2-c]imidazol-1-yl)-2-[6-[4-[4-[2-[4-[4-[[(3S)-2,6-dioxo-3-piperidyl]amino]phenyl]-1-piperidyl]acetyl]piperazin-1-yl]phenyl]-4-fluoro-1-oxo-isoindolin-2-yl]-N-thiazol-2-yl-acetamide], for which the values for the 50% degradation concentration (DC50) in experiment [1], in experiment [2] and in experiment [3] were 22 nM, 8 nM and 7 nM, respectively.
Consider `O=C1CC[C@H](Nc2ccc(C3CCN(CC(=O)N4CC5(C4)CN(c4ccc(-c6cc(F)c7c(c6)C(=O)N(C(C(=O)Nc6nccs6)c6ncn8c6CCC8)C7)cc4)C5)CC3)c(F)c2)C(=O)N1` (stereo partly drawn) [Compound 48, 2-(6,7-dihydro-5H-pyrrolo[1,2-c]imidazol-1-yl)-2-[6-[4-[2-[2-[4-[4-[[(3S)-2,6-dioxo-3-piperidyl]amino]-2-fluoro-phenyl]-1-piperidyl]acetyl]-2,6-diazaspiro[3.3]heptan-6-yl]phenyl]-4-fluoro-1-oxo-isoindolin-2-yl]-N-thiazol-2-yl-acetamide], for which the figures for the DC50 in experiment [1], in experiment [2] and in experiment [3] were 28 nM, 11 nM and 7 nM, respectively.
With `O=C1CCC(Nc2ccc(C3CCN(CC(=O)N4CCC(Oc5ccc(-c6cc(F)c7c(c6)C(=O)N(C(C(=O)Nc6nccs6)c6ncn8c6CCC8)C7)cc5)CC4)CC3)c(F)c2)C(=O)N1` (stereo not drawn) [Compound 35, 2-(6,7-dihydro-5H-pyrrolo[1,2-c]imidazol-1-yl)-2-(6-(4-((1-(2-(4-(4-((2,6-dioxopiperidin-3-yl)amino)-2-fluorophenyl)piperidin-1-yl)acetyl)piperidin-4-yl)oxy)phenyl)-4-fluoro-1-oxoisoindolin-2-yl)-N-(thiazol-2-yl)acetamide], the DC50 turned out to be 46 nM in experiment [1], 12 nM in experiment [2] and 9 nM in experiment [3].
As for `O=C1CC[C@H](Nc2ccc(C3CCN(CC(=O)N4CCN(c5ccc(-c6cc(F)c7c(c6)C(=O)N(C(C(=O)Nc6nccs6)c6ncn8c6C[C@@H](F)C8)C7)cc5)CC4)CC3)c(F)c2)C(=O)N1` (stereo partly drawn) [Compound 44, 2-[6-[4-[4-[2-[4-[4-[[(3S)-2,6-dioxo-3-piperidyl]amino]-2-fluoro-phenyl]-1-piperidyl]acetyl]piperazin-1-yl]phenyl]-4-fluoro-1-oxo-isoindolin-2-yl]-2-[(6R)-6-fluoro-6,7-dihydro-5H-pyrrolo[1,2-c]imidazol-1-yl]-N-thiazol-2-yl-acetamide], the 50% degradation concentration (DC50) amounted to 22 nM in experiment [1], 12 nM in experiment [2] and 6 nM in experiment [3].
As to `O=C1CC[C@H](Nc2ccc(C3CCN(CC(=O)N4CCC(Oc5ccc(-c6cc(F)c7c(c6)C(=O)N(C(C(=O)Nc6nccs6)c6ncn8c6CCC8)C7)cc5)CC4)CC3)cc2)C(=O)N1` (stereo partly drawn) [Compound 32, 2-(6,7-dihydro-5H-pyrrolo[1,2-c]imidazol-1-yl)-2-[6-[4-[[1-[2-[4-[4-[[(3S)-2,6-dioxo-3-piperidyl]amino]phenyl]-1-piperidyl]acetyl]-4-piperidyl]oxy]phenyl]-4-fluoro-1-oxo-isoindolin-2-yl]-N-thiazol-2-yl-acetamide], the values for the DC50 in experiment [1], in experiment [2] and in experiment [3] were 47 nM, 11 nM and 12 nM, respectively.
For `O=C1CCC(Nc2ccc(C3CCN(CC(=O)N4CCC(NC(=O)c5ccc(C#Cc6cc(F)c7c(c6)C(=O)N(C(C(=O)Nc6nccs6)c6ncn8c6CCC8)C7)cn5)CC4)CC3)cc2)C(=O)N1` (racemic) [Compound 1, 5-[2-[7-Fluoro-3-oxo-2-[(1RS)-1-(6,7-dihydro-5H-pyrrolo[1,2-c]imidazol-1-yl)-2-oxo-2-(thiazol-2-ylamino)ethyl]isoindolin-5-yl]ethynyl]-N-[1-[2-[4-[4-[[(3RS)-2,6-dioxo-3-piperidyl]amino]phenyl]-1-piperidyl]acetyl]-4-piperidyl]pyridine-2-carboxamide], in that order: 6 nM, 17 nM and 8 nM.
On to `O=C1CCC(Nc2ccc(C3CCN(CC(=O)N4CCC(c5ccc(-c6cc(F)c7c(c6)C(=O)N(C(C(=O)Nc6nccs6)c6ncn8c6CCC8)C7)cc5)CC4)CC3)cc2)C(=O)N1` (stereo not drawn) [Compound 21, 2-(6,7-dihydro-5H-pyrrolo[1,2-c]imidazol-1-yl)-2-(6-(4-(1-(2-(4-(4-((2,6-dioxopiperidin-3-yl)amino)phenyl)piperidin-1-yl)acetyl)piperidin-4-yl)phenyl)-4-fluoro-1-oxoisoindolin-2-yl)-N-(thiazol-2-yl)acetamide], for which the DC50 in experiment [1] was found to be 31 nM; in experiment [2] it was 17 nM; in experiment [3], 11 nM.
For `O=C1CC[C@H](Nc2ccc(C3CCN(CC(=O)N4CCN(Cc5ccc(-c6cc(F)c7c(c6)C(=O)N(C(C(=O)Nc6nccs6)c6ncn8c6CCC8)C7)cc5)CC4)CC3)c(F)c2)C(=O)N1` (stereo partly drawn) [Compound 58, 2-(6,7-dihydro-5H-pyrrolo[1,2-c]imidazol-1-yl)-2-[6-[4-[[4-[2-[4-[4-[[(3S)-2,6-dioxo-3-piperidyl]amino]-2-fluoro-phenyl]-1-piperidyl]acetyl]piperazin-1-yl]methyl]phenyl]-4-fluoro-1-oxo-isoindolin-2-yl]-N-thiazol-2-yl-acetamide], the DC50 in experiment [1] turned out to be 26 nM; in experiment [2], 14 nM; in experiment [3] it was 26 nM.
As to `Cn1nc(N2CCC(=O)NC2=O)c2ccc(C3CCN(CC(=O)N4CCN(c5ccc(-c6cc(F)c7c(c6)C(=O)N(C(C(=O)Nc6nccs6)c6ncn8c6CCC8)C7)cc5)CC4)CC3)cc21` (stereo not drawn) [Compound 17, 2-(6,7-dihydro-5H-pyrrolo[1,2-c]imidazol-1-yl)-2-(6-(4-(4-(2-(4-(3-(2,4-dioxotetrahydropyrimidin-1(2H)-yl)-1-methyl-1H-indazol-6-yl)piperidin-1-yl)acetyl)piperazin-1-yl)phenyl)-4-fluoro-1-oxoisoindolin-2-yl)-N-(thiazol-2-yl)acetamide], the values for the DC50 in experiment [1], in experiment [2] and in experiment [3] were 29 nM, 22 nM and 6 nM, respectively.
Consider `O=C1CCC(Nc2ccc(C3CCN(CC(=O)N4CCN(c5ccc(-c6cc(F)c7c(c6)C(=O)N(C(C(=O)Nc6ccccn6)c6ncn8c6CCC8)C7)cc5)CC4)CC3)c(F)c2)C(=O)N1` (stereo not drawn) [Compound 20, 2-(6,7-dihydro-5H-pyrrolo[1,2-c]imidazol-1-yl)-2-[6-[4-[4-[2-[4-[4-[(2,6-dioxo-3-piperidyl)amino]-2-fluoro-phenyl]-1-piperidyl]acetyl]piperazin-1-yl]phenyl]-4-fluoro-1-oxo-isoindolin-2-yl]-N-(2-pyridyl)acetamide], for which the DC50 in experiment [1] came out at 59 nM; in experiment [2], 34 nM; in experiment [3], 25 nM.
For `O=C1CCC(Nc2ccc(C3CCN(CC(=O)N4CCC(Oc5ccc(-c6cc(F)c7c(c6)C(=O)N(C(C(=O)Nc6nccs6)c6ncn8c6CCC8)C7)cc5)CC4)CC3)cc2F)C(=O)N1` (stereo not drawn) [Compound 34, 2-(6,7-dihydro-5H-pyrrolo[1,2-c]imidazol-1-yl)-2-(6-(4-((1-(2-(4-(4-((2,6-dioxopiperidin-3-yl)amino)-3-fluorophenyl)piperidin-1-yl)acetyl)piperidin-4-yl)oxy)phenyl)-4-fluoro-1-oxoisoindolin-2-yl)-N-(thiazol-2-yl)acetamide], in that order: 57 nM, 22 nM and 13 nM.

The DC50 is the concentration at which degradation of the target reaches its halfway point.
